{
  "source": "a melting point compilation (Tetko et al.)",
  "data": [
    {"units": {"melting point": "°C"}, "values": [
      {"smiles": "Nc1nnc(SCc2ccc(F)cc2)s1", "melting point": "145 to 147"},
      {"smiles": "COc1ccc(S(=O)(=O)Nc2ccccc2Cl)cc1N", "melting point": "93 to 95"},
      {"smiles": "CC(=O)N(C)Cc1ccc(C(=O)CCl)cc1", "melting point": "45 to 47"},
      {"smiles": "O=C(c1ccc(F)cc1)c1ccc(Cl)cc1", "melting point": "115 to 117"},
      {"smiles": "CC(C)NC(=O)c1ccc(Cl)cc1N", "melting point": "158 to 160"},
      {"smiles": "NNC(=O)Cn1ccc(C(F)(F)F)n1", "melting point": "157 to 159"},
      {"smiles": "Cc1cccc(CNc2ccc3[nH]c(=O)[nH]c3c2)c1", "melting point": "216 to 218"},
      {"smiles": "O=C(O)C1CCCCN1C(=O)C1CCCC1", "note": "(stereo unspecified)", "melting point": "121 to 123"},
      {"smiles": "Cc1cc(C)c(C)c(S(N)(=O)=O)c1C", "melting point": "149 to 151"},
      {"smiles": "Cc1cc(C)c(C)c(Oc2c(C(=O)O)c(C)nn2C)c1", "melting point": "215 to 217"},
      {"smiles": "Cc1ccc(-c2nonc2N)cc1", "melting point": "139 to 141"},
      {"smiles": "CC(C)CC(C(=O)O)N1CCCCC1=O", "note": "(stereo unspecified)", "melting point": "182 to 184"},
      {"smiles": "CNCCOc1ccc(OCc2ccccc2)cc1", "melting point": "44 to 46"},
      {"smiles": "Nc1cccc(S(=O)(=O)Nc2cccc(C(F)(F)F)c2)c1", "melting point": "98 to 100"},
      {"smiles": "CCc1cc2c(=O)n(N)cnc2s1", "melting point": "137 to 139"},
      {"smiles": "COC(=O)c1cc(S(=O)(=O)Cl)ccc1Cl", "melting point": "79 to 81"},
      {"smiles": "CC(=O)Nc1cc(N)ccc1F", "melting point": "134 to 136"},
      {"smiles": "CC(C)(C)c1cc(N)n(-c2ncccn2)n1", "melting point": "194 to 196"},
      {"smiles": "NCc1ccc(C(=O)Nc2ccc(F)cc2)cc1", "melting point": "145 to 147"},
      {"smiles": "O=C(O)c1ccc(SCc2ccccc2)cc1", "melting point": "184 to 186"},
      {"smiles": "CC(=O)N(c1ccc(F)cc1)c1nc(C=O)cs1", "melting point": "216 to 218"},
      {"smiles": "Cc1ccc(S(=O)(=O)Oc2cccnc2[N+](=O)[O-])cc1", "melting point": "83 to 85"},
      {"smiles": "CCC(CC)C(=O)N1CCC(=NO)CC1", "melting point": "101 to 103"},
      {"smiles": "CCOc1ccc(NC(C)=O)cc1S(N)(=O)=O", "melting point": "187 to 189"},
      {"smiles": "COc1cc(C=O)c([N+](=O)[O-])cc1OCC(F)F", "melting point": "139 to 141"},
      {"smiles": "O=C(O)Cc1ccc(NC(=O)c2cc3ccccc3o2)cc1", "melting point": "189 to 191"},
      {"smiles": "Cc1ccc2c(CCl)cc(=O)oc2c1", "melting point": "170 to 172"},
      {"smiles": "COc1ccc(S(=O)(=O)N(C)C)cc1NC(=O)C(C)Cl", "note": "(stereo unspecified)", "melting point": "107 to 109"},
      {"smiles": "N#Cc1cccc(OC2CCNCC2)c1", "melting point": "52 to 54"},
      {"smiles": "CC(Cl)C(=O)Nc1ccc2c(c1)OC1(CCCCC1)O2", "note": "(stereo unspecified)", "melting point": "98 to 100"},
      {"smiles": "Oc1ccc(Sc2ccncc2)cc1", "melting point": "239 to 241"},
      {"smiles": "O=C(O)c1ccn(-c2c(F)cccc2F)n1", "melting point": "179 to 181"},
      {"smiles": "CC(=Cc1ccc(Cl)cc1)C(=O)O", "melting point": "159 to 161"},
      {"smiles": "CCc1ccc(C(=O)O)cc1[N+](=O)[O-]", "melting point": "158 to 160"},
      {"smiles": "O=C1C=CC(=O)N1c1ccccc1Sc1ccccc1", "melting point": "51 to 53"},
      {"smiles": "NC(=S)c1cc2ccccc2oc1=O", "melting point": "241 to 243"},
      {"smiles": "Cc1nc(CCl)nc2ccccc12", "melting point": "60 to 62"},
      {"smiles": "CC1Oc2ncccc2NC1=O", "note": "(stereo unspecified)", "melting point": "225 to 227"},
      {"smiles": "CN(C)c1cc2ccccc2c(=O)[nH]1", "melting point": "185 to 187"},
      {"smiles": "CC(C)(C(=O)O)c1ccc2c(c1)OCCO2", "melting point": "125 to 127"},
      {"smiles": "COC(=O)c1sc(N)nc1C1CC1", "melting point": "184 to 186"},
      {"smiles": "COCCOc1cn(-c2ccccc2)nc1C(=O)O", "melting point": "103 to 105"},
      {"smiles": "CC(C)(C)NS(=O)(=O)c1cccc(C(=O)O)c1", "melting point": "145 to 147"},
      {"smiles": "CCCNS(=O)(=O)c1cccc(C(=O)O)c1", "melting point": "199 to 201"},
      {"smiles": "O=C(O)CCC(=O)N1CCC(c2ccccc2)=N1", "melting point": "182 to 184"},
      {"smiles": "CCCCc1nc2ccccc2[nH]1", "melting point": "149 to 151"},
      {"smiles": "O=C(O)c1cc(C=Cc2ccncc2)nc2ccc(Br)cc12", "melting point": "309 to 311"},
      {"smiles": "Cc1ccc(C(=O)C(Br)CC(=O)O)cc1", "note": "(stereo unspecified)", "melting point": "116 to 118"},
      {"smiles": "N#Cc1cccnc1NCc1cccc(C(=O)O)c1", "melting point": "197 to 199"},
      {"smiles": "CNC(=O)Cn1nc(N)cc1C", "melting point": "115 to 117"},
      {"smiles": "COC(=O)C1COc2ccccc2O1", "note": "(stereo unspecified)", "melting point": "37 to 39"},
      {"smiles": "CCOc1ccc(CC(CN)C(N)=O)cc1", "note": "(stereo unspecified)", "melting point": "116 to 118"},
      {"smiles": "O=C1CCCc2nc(-c3ccccc3)sc21", "melting point": "119 to 121"},
      {"smiles": "COc1ccccc1NS(=O)(=O)c1ccc(O)c(C(=O)O)c1", "melting point": "172 to 174"},
      {"smiles": "CN(CC(=O)O)S(=O)(=O)c1cccs1", "melting point": "152 to 156"},
      {"smiles": "CN(c1ccccc1N)S(C)(=O)=O", "melting point": "138 to 140"},
      {"smiles": "CCOC(=O)Cc1nc2cc(Cl)ccc2s1", "melting point": "79 to 81"},
      {"smiles": "CCNC(=O)N1CCc2ccc(N)cc21", "melting point": "134 to 136"},
      {"smiles": "Nc1ccc(Br)nc1Cl", "melting point": "113 to 115"},
      {"smiles": "Cc1oncc1C(=O)NC(C)C(=O)O", "note": "(stereo unspecified)", "melting point": "159 to 161"},
      {"smiles": "Nc1ccc(S(=O)(=O)Nc2ccccc2Cl)cc1N", "melting point": "203 to 205"},
      {"smiles": "O=C(O)c1cc2ccccc2c(Cl)n1", "melting point": "202 to 204"},
      {"smiles": "Oc1ncnc(Cl)c1I", "melting point": "274 to 276"},
      {"smiles": "O=C(O)c1ccc2[nH]c(-c3ccc(Cl)cc3)nc2c1", "melting point": "319 to 321"},
      {"smiles": "Cc1cccc(NC(=O)NCC(=O)O)c1", "melting point": "182 to 184"},
      {"smiles": "Sc1nnc(NCCCN2CCOCC2)s1", "melting point": "145 to 147"},
      {"smiles": "Cc1ccc(N2CC(C(=O)O)CC2=O)c(F)c1", "note": "(stereo unspecified)", "melting point": "112 to 114"},
      {"smiles": "N#CCC1=NC(=O)CS1", "melting point": "183 to 185"},
      {"smiles": "COC(=O)C(C#N)=Cc1cccc(F)c1", "melting point": "107 to 109"},
      {"smiles": "O=C(CCl)c1ccc(Br)cc1", "melting point": "119 to 121"},
      {"smiles": "Cc1cc(O)nc(CCl)n1", "melting point": "147 to 149"}
    ]}
  ]
}
